Test results taken from PubChem BioAssay AID406 (SGCOxCompounds, 2006).

Target: mRNA-capping enzyme (Homo sapiens) (UniProt O60942)
Test: inhibition of human mRNA capping enzyme RNGTT – biochemical, DiFMUP fluorescence, recombinant (AID 406)
Conditions: DiFMUP phosphatase fluorescence, at 50 µM, active compounds read high

Chain of mRNA-capping enzyme (Homo sapiens) (O60942 whole entry, looked up): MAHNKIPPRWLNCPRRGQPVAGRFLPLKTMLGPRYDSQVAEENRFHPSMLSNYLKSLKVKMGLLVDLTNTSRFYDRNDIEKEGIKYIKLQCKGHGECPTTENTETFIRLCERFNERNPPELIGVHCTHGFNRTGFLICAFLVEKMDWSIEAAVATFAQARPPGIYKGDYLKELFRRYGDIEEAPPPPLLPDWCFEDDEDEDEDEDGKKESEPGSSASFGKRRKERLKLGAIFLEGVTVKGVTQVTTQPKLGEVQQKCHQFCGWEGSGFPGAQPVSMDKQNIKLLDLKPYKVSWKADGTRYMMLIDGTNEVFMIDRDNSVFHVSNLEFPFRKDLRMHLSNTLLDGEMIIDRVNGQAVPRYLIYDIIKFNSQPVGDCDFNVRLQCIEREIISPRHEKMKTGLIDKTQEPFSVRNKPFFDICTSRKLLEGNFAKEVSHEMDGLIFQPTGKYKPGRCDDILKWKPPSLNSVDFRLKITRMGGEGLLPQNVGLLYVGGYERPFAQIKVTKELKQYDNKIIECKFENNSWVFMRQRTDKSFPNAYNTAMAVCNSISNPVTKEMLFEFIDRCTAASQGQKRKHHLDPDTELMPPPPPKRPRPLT

`O=C(O)c1ccc(O)cn1.OO.[O]=[V]` was tested. Which inhibition did it give?
Its inhibition is 51%.

Which inhibition does the source give for `CN(N=O)c1ccc(O)c(O)c1` here?
The inhibition was 33%.

Which inhibition does the source give for `c1ccc([C@H]2CN3CCSC3=N2)cc1` here?
The inhibition was 29%.

Which inhibition does the source give for `NC1=NC(=O)/C(=C/C=C/c2ccc([N+](=O)[O-])o2)S1` here?
Its inhibition is 33%.

How did the inhibition turn out when `CC(C)(c1ccc(NS(=O)(=O)C(F)(F)F)cc1)c1ccc(C(C)(C)c2ccc(NS(=O)(=O)C(F)(F)F)cc2)cc1` was run?
Its inhibition is 37%.

For `OO.OO.[K+].[O]=[V].c1cnc2c(c1)ccc1cccnc12`, which inhibition is on record?
The inhibition was 22%.

For `O=C1NC(=S)NC(=O)C1=C/C=C/c1ccco1`, which inhibition is on record?
The inhibition was 22%.

With `CC(=O)c1ccc2c(c1)C1C=CCC1C(C(=O)O)N2` (configuration not stated) as the molecule, how does the inhibition read?
The inhibition was 41%.

How did the inhibition turn out when `O=C(O)c1ccc([O-])cn1.OO.OO.[K+].[K+].[O]=[V]` was run?
Its inhibition is 47%.

Which inhibition does the source give for `O=C([O-])c1ccccn1.OO.OO.[K+].[K+].[O]=[V]` here?
Its inhibition is 36%.

With `OO.OO.[K+].[O]=[V].c1ccc(-c2ccccn2)nc1` as the molecule, how does the inhibition read?
The inhibition was 41%.

Which inhibition does the source give for `O=C1NC(=S)S/C1=C\C=C\c1ccc([N+](=O)[O-])o1` here?
The inhibition was 60%.
